# Columns and labels:
# [1] = Metabolic stability in Sprague-Dawley rat plasma assessed as half life at 1 uM incubated for 60 min by LC-MS/MS method; type: ADME, cell-free
# [2] = Metabolic stability in human plasma assessed as half life at 1 uM incubated for 60 min by LC-MS/MS method; type: ADME, cell-free
# [3] = Metabolic stability in beagle dog plasma assessed as half life at 1 uM incubated for 60 min by LC-MS/MS method; type: ADME, cell-free, Canis lupus familiaris
# [4] = Metabolic stability in human liver S9 fraction assessed as half life at 1 uM incubated for 60 min by LC-MS/MS method; type: ADME, subcellular
# [5] = Metabolic stability in beagle dog liver S9 fraction assessed as half life at 1 uM incubated for 60 min by LC-MS/MS method; type: ADME, subcellular, Canis lupus familiaris
# [6] = Prodrug conversion in Sprague-Dawley rat assessed as ratio of AUC for compound to BXN at 1 mg/kg,IV and measured after 60 mins by LC-MS/MS analysis; type: ADME, organism-based; conditions: in vivo, 1 h
# [7] = Prodrug conversion in Sprague-Dawley rat assessed as ratio of AUC for compound to BXN at 5 mg/kg,IM and measured after 60 mins by LC-MS/MS analysis; type: ADME, organism-based; conditions: in vivo, 1 h
# [8] = Half life in Sprague-Dawley rat assessed as BXN at 5 mg/kg, IM administered for 30 mins measured after 24 hrs post dose by LC-MS/MS analysis; type: ADME, organism-based; conditions: in vivo, 24.5 h
# [9] = AUClast in Sprague-Dawley rat assessed as BXN at 5 mg/kg, IM administered for 30 mins measured after 24 hrs post dose by LC-MS/MS analysis; type: ADME, organism-based; parameters: time 24.5 hrs, dose 5 mg/kg, route im; conditions: in vivo, 24.5 h
# [10] = Cmax in Sprague-Dawley rat assessed as BXN at 5 mg/kg, IM administered for 30 mins measured after 24 hrs post dose by LC-MS/MS analysis; type: ADME, organism-based; parameters: time 24.5 hrs, dose 5 mg/kg, route im; conditions: in vivo, 24.5 h
# [11] = Clearance in Sprague-Dawley rat at 1 mg/kg, IV administered for 30 mins measured after 24 hrs post dose by LC-MS/MS analysis; type: ADME, organism-based; conditions: in vivo, time 24.5 hrs
# [12] = Half life in Sprague-Dawley rat assessed as BXN at 1 mg/kg, IV administered for 30 mins measured after 24 hrs post dose by LC-MS/MS analysis; type: ADME, organism-based; conditions: in vivo, 24.5 h
# [13] = Half life in Sprague-Dawley rat at 1 mg/kg, IV administered for 30 mins measured after 24 hrs post dose by LC-MS/MS analysis; type: ADME, organism-based; conditions: in vivo, time 24.5 hrs
# [14] = AUClast in Sprague-Dawley rat at 1 mg/kg, IV administered for 30 mins measured after 24 hrs post dose by LC-MS/MS analysis; type: ADME, organism-based; parameters: dose 1 mg/kg, time 24.5 hrs, route iv; conditions: in vivo
# [15] = AUClast in Sprague-Dawley rat assessed as BXN at 1 mg/kg, IV administered for 30 mins measured after 24 hrs post dose by LC-MS/MS analysis; type: ADME, organism-based; parameters: dose 1 mg/kg, time 24.5 hrs, route iv; conditions: in vivo, 24.5 h
# [16] = Cmax in Sprague-Dawley rat at 1 mg/kg, IV administered for 30 mins measured after 24 hrs post dose by LC-MS/MS analysis; type: ADME, organism-based; parameters: time 24.5 hrs, dose 1 mg/kg, route iv; conditions: in vivo
# [17] = Cmax in Sprague-Dawley rat assessed as BXN at 1 mg/kg, IV administered for 30 mins measured after 24 hrs post dose by LC-MS/MS analysis; type: ADME, organism-based; parameters: time 24.5 hrs, dose 1 mg/kg, route iv; conditions: in vivo, 24.5 h
# [18] = Half life in beagle dog assessed as BXN at 1 mg/kg, IV administered for 30 mins measured after 24 hrs post dose by LC-MS/MS analysis; type: ADME, organism-based, Canis lupus familiaris; conditions: in vivo, 24.5 h
# [19] = Half life in beagle dog assessed as BXN at 5 mg/kg, IM administered for 30 mins measured after 24 hrs post dose by LC-MS/MS analysis; type: ADME, organism-based, Canis lupus familiaris; conditions: in vivo, 24.5 h
# [20] = AUClast in beagle dog at 1 mg/kg, IV administered for 30 mins measured after 24 hrs post dose by LC-MS/MS analysis; type: ADME, organism-based, Canis lupus familiaris; parameters: time 24.5 hrs, dose 1 mg/kg, route iv; conditions: in vivo
# [21] = AUClast in beagle dog assessed as BXN at 1 mg/kg, IV administered for 30 mins measured after 24 hrs post dose by LC-MS/MS analysis; type: ADME, organism-based, Canis lupus familiaris; parameters: dose 1 mg/kg, time 24.5 hrs, route iv; conditions: in vivo, 24.5 h
# [22] = AUClast in beagle dog assessed as BXN at 5 mg/kg, IM administered for 30 mins measured after 24 hrs post dose by LC-MS/MS analysis; type: ADME, organism-based, Canis lupus familiaris; parameters: time 24.5 hrs, dose 5 mg/kg, route im; conditions: in vivo, 24.5 h
# [23] = Cmax in beagle dog at 1 mg/kg, IV administered for 30 mins measured after 24 hrs post dose by LC-MS/MS analysis; type: ADME, organism-based, Canis lupus familiaris; parameters: time 24.5 hrs, dose 1 mg/kg, route iv; conditions: in vivo
# [24] = Cmax in beagle dog assessed as BXN at 1 mg/kg, IV administered for 30 mins measured after 24 hrs post dose by LC-MS/MS analysis; type: ADME, organism-based, Canis lupus familiaris; parameters: dose 1 mg/kg, time 24.5 hrs, route iv; conditions: in vivo, 24.5 h
# [25] = Cmax in beagle dog assessed as BXN at 5 mg/kg, IM administered for 30 mins measured after 24 hrs post dose by LC-MS/MS analysis; type: ADME, organism-based, Canis lupus familiaris; parameters: time 24.5 hrs, dose 5 mg/kg, route im; conditions: in vivo, 24.5 h
# [26] = Prodrug conversion in beagle dog assessed as ratio of AUC for compound to BXN at 1 mg/kg,IV and measured after 60 mins by LC-MS/MS analysis; type: ADME, organism-based, Canis lupus familiaris; conditions: in vivo, 1 h
# [27] = Prodrug conversion in beagle dog assessed as ratio of AUC for compound to BXN at 5 mg/kg,IM and measured after 60 mins by LC-MS/MS analysis; type: ADME, organism-based, Canis lupus familiaris; conditions: in vivo, 1 h
# [28] = Metabolic stability in Sprague-Dawley rat liver S9 fraction assessed as half life at 1 uM incubated for 60 min by LC-MS/MS method; type: ADME, subcellular
structure (smiles),measurement,setting,value
CC(=O)OCCCC(=O)O[C@@H]1CC[C@@]2(C)[C@@H](CC[C@@H]3[C@@H]2CC[C@]2(C)[C@@H](C(C)=O)CC[C@@H]32)C1,half-life at 1 µM,[1],1.6 min
same,half-life at 1 µM,[2],176 min
same,half-life at 1 µM,[3],138 min
same,half-life at 1 µM,[4],0.9 min
CC(=O)[C@H]1CC[C@H]2[C@@H]3CC[C@H]4C[C@H](OC(=O)CC5CCCC5)CC[C@]4(C)[C@H]3CC[C@]12C,half-life at 1 µM,[2],300 min
same,half-life at 1 µM,[4],25 min
CC(=O)OCCCC(C)C(=O)O[C@@H]1CC[C@@]2(C)[C@@H](CC[C@@H]3[C@@H]2CC[C@]2(C)[C@@H](C(C)=O)CC[C@@H]32)C1 (stereo partly specified),half-life at 1 µM,[2],145 min
same,half-life at 1 µM,[3],233 min
same,half-life at 1 µM,[4],0.9 min
same,half-life at 1 µM,[5],1 min
CC(=O)[C@H]1CC[C@H]2[C@@H]3CC[C@H]4C[C@H](OC(=O)OCc5oc(=O)oc5C)CC[C@]4(C)[C@H]3CC[C@]12C,half-life at 1 µM,[1],< 2 min
same,half-life at 1 µM,[2],40 min
same,half-life at 1 µM,[3],30 min
same,half-life at 1 µM,[4],1.2 min
same,half-life at 1 µM,[5],2.3 min
same,Ratio AUC,[6],> 253
same,Ratio AUC,[7],2.9
same,t1/2,[8],1730 min
same,AUClast,[9],253 ng·h/mL
same,Cmax,[10],23.4 ng/mL
same,clearance,[11],440 mL/min/kg
same,t1/2,[12],1900 min
same,half-life,[13],17 min
same,AUC(0-t) at 24.5 h,[14],38.6 ng·h/mL
same,AUClast,[15],113 ng·h/mL
same,Cmax,[16],103 ng/mL
same,Cmax,[17],107 ng/mL
same,t1/2,[18],28.4 min
same,t1/2,[19],618 min
same,AUC(0-t) at 24.5 h,[20],62.6 ng·h/mL
same,AUClast,[21],148 ng·h/mL
same,AUClast,[22],122 ng·h/mL
same,Cmax,[23],151 ng/mL
same,Cmax,[24],241 ng/mL
same,Cmax,[25],26.6 ng/mL
same,Ratio AUC,[26],2.4
same,Ratio AUC,[27],> 122
CC(=O)[C@H]1CC[C@H]2[C@@H]3CC[C@H]4C[C@H](OC(=O)CCCOC(=O)C(C)C)CC[C@]4(C)[C@H]3CC[C@]12C,half-life at 1 µM,[1],1.2 min
same,half-life at 1 µM,[2],140 min
same,half-life at 1 µM,[3],233 min
same,half-life at 1 µM,[4],1.2 min
same,half-life at 1 µM,[5],1.9 min
same,half-life at 1 µM,[28],1.1 min
CCCCOC(=O)O[C@@H]1CC[C@@]2(C)[C@@H](CC[C@@H]3[C@@H]2CC[C@]2(C)[C@@H](C(C)=O)CC[C@@H]32)C1,half-life at 1 µM,[1],6.3 min
same,half-life at 1 µM,[2],> 233 min
same,half-life at 1 µM,[3],132 min
same,half-life at 1 µM,[4],1.6 min
same,half-life at 1 µM,[5],1.5 min
same,half-life at 1 µM,[28],16 min
CC(=O)[C@H]1CC[C@H]2[C@@H]3CC[C@H]4C[C@H](OC(=O)NCCOC(=O)C(C)C)CC[C@]4(C)[C@H]3CC[C@]12C,half-life at 1 µM,[2],289 min
same,half-life at 1 µM,[4],0.6 min
